Here are results for eight molecules from patent US20220025053A1, “Methods of Inhibiting Metastasis in Cancer” (Wisconsin Alumni Research Foundation, priority 2018, published 2022).

Entries after “also recorded” stand apart in the source; their conditions may differ.

One series concerns MEK. Nature of the series: SELP expression in LP-9 by qRT-PCR, MEK inhibition. The format is cell-based, human. The following applies: both vehicle and 100 ng/mL MIP-1β treated LP-9, 10 μM PD0325901, 24 hours. The source says:
(§1) RNA extraction and qRT-PCR: RNA was collected and isolated using the Micro-RNeasy® Extraction kit (Qiagen; Valencia, Calif.), and cDNA was synthesized using the Qiagen® First Strand Kit according to manufacturer's instructions. cDNA was mixed with Qiagen® Mastermix and assayed using the Extracellular Matrix and Adhesion Molecules RT2 Profiler PCR Array (Qiagen) in a CFX real time PCR machine (Bio-Rad; Hercules, Calif.) for a total of 40 cycles, using Qiagen's Data Analysis Center for analysis. Data is expressed as fold change, with ±2-fold set as the threshold for significance. qRT-PCR was performed using human primers for SELP, CCR1, and CCR5, and GAPDH (all Qiagen), and mouse primers for Selp (Qiagen) and Aes (IDT; Coralville, Iowa), with SsoAdvanced™ Universal SYBR® Green Supermix (Bio-Rad). Three samples were run in duplicate from each condition.
(§2) Interventions in co-culture model: To determine if P-selectin played a role in adhesion, LP-9 in co-culture devices were treated with 10 μg/mL of anti-P-selectin blocking antibody or monoclonal mouse IgG1 isotype (BioLegend; San Diego, Calif.), or 10 μM of the small molecular inhibitor KF38789 (Tocris; Minneapolis, Minn.) or DMSO (0.0005% v/v) 1 hour prior to the addition of ovarian cancer cells. […]
For orientation: Real-time PCR tracks product formation cycle by cycle.

The next series concerns HGSOC. To be noted: mouse models of HGSOC; cited from earlier work.
A further series deals with CCR5 (Homo sapiens, UniProt P51681). Nature of the series: SELP expression in LP-9 by qRT-PCR, CCR5 inhibition. The format is cell-based. To be noted: 100 ng/mL MIP-1β + 10 μg/mL maraviroc, 24 hours.
CCR5, sequence (P51681 whole entry): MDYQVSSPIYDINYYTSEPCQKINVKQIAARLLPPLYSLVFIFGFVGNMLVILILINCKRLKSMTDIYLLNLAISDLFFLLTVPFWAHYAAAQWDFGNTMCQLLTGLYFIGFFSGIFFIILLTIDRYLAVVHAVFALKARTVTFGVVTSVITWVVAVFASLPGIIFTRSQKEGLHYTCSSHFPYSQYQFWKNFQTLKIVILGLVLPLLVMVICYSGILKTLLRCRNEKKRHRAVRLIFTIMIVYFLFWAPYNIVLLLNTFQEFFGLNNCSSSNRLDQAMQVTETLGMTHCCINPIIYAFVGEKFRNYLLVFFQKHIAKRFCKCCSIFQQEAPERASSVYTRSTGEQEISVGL
Excerpt: as §1, §2

For series [1] the following is noted: administered systemically; cited from earlier work.
Series [2] deals with T1, P-selectin (Homo sapiens, UniProt P16109).
T1 sequence (P16109 42-830): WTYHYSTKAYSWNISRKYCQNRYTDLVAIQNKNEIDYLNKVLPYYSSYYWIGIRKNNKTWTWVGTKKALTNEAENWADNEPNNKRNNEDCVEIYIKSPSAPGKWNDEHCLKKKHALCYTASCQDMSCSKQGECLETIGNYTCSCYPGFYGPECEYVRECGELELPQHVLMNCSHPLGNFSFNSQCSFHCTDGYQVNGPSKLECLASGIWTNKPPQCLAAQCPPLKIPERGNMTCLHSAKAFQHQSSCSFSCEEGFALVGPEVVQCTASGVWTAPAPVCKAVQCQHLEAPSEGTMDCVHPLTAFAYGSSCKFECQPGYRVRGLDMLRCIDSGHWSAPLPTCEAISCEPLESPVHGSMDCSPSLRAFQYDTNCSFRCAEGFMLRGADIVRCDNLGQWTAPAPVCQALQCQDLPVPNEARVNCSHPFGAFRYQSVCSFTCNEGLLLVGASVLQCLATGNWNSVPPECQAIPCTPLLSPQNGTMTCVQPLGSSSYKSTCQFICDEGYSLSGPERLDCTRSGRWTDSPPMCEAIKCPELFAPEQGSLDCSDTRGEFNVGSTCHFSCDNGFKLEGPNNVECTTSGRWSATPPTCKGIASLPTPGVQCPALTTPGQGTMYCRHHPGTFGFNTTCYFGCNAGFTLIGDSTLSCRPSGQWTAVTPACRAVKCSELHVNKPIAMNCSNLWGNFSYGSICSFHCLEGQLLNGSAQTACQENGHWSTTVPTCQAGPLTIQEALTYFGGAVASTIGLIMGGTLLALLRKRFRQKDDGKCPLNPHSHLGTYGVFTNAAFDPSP
The following applies: clinical trial; cited from earlier work.

Series [3] concerns the target T1, P-selectin. Nature of the series: HGSOC adhesion to LP-9 mesothelial cells in co-culture device, P-selectin inhibition. It is filed as cell-based. Set-up: endogenous in cells; host or cells: LP-9 mesothelial cells. To be noted: LP-9 + 100 ng/mL MIP-1β; 10 μM KF38789 1 hour before tumor cells; 3 h adhesion. The source says:
(§3) In vitro model of adhesion in transcoelomic metastasis: A co-culture device was modified to construct the in vitro model of metastatic adhesion (FIG. 2). The device includes a PDMS ring that is placed in a well of a 24 well tissue culture plate and a 9×9 mm coverslip placed on top. One or more cell types can be grown within the ring, while another population can be grown on the coverslip. Inverting the coverslip on top of the ring initiates co-culture between the populations. The tissue culture plastic within the PDMS ring was coated with 1 μg of PureCol® Collagen I (Advanced Biomatrix; San Diego, Calif.) for 2 hours at room temperature. LP-9 or LP-3 were seeded into the PDMS rings to confluency (93,500 cells/cm^2 in 40 μL). Twenty-four hours after seeding, cells were washed with SFM, AAM or control coverslips were placed on top of the PDMS ring, and 40 μL of fresh SFM was added. HGSOC cells were stained with 5 μM CellTracker™ Green CMFDA Dye, dissociated using TrypLE™ Select Enzyme, and seeded into devices at 10,000 cells/10 μL after 24 hours of mesothelial cells and AAMs co-culture. […] Percent adhesion was quantified by converting cells/image to total cells/area of the co-culture device and dividing by the number of HGSOC cells added to the device.

Series [4] concerns the target T1, P-selectin. Briefly: Colorectal cancer cell adhesion to MIP-1β-treated LP-9. The format is cell-based. Set-up: endogenous in cells; host or cells: LP-9 mesothelial cells. The following applies: LS411N, SW48; 100 ng/mL MIP-1β; KF38789 10 μM. As for the experimental part:
The experimental methods are reflective of those previously used to inhibit P-selectin, while used in an adhesion experiment with the colorectal cell lines LS411N and SW48.
The tissue culture plastic within the PDMS ring was coated with 1 μg of PureCol® Collagen I for 2 hours at room temperature. LP-9 were seeded into the PDMS rings to confluency (93,500 cells/cm^2 in 40 μL). Twenty-four hours after seeding, cells were washed with SFM, and 40 μL of fresh SFM containing either vehicle (0.1% BSA) or 100 ng/mL MIP-1β was added for 24 hours. To determine if P-selectin played a role in adhesion, LP-9 were treated with 10 μM of the small molecule P-selectin inhibitor KF38789 or DMSO (0.0005% v/v) 1 hour prior to the addition of colorectal cancer cells. The colorectal cancer cells (LS411N, SW48) were stained with 5 μM CellTracker™ Green CMFDA Dye, dissociated using TrypLE Select Enzyme, and seeded into devices at 10,000 cells/10 μL after 24 hours of mesothelial cell treatment with MIP-1β. Colorectal cancer cells were allowed to adhere for three hours, then coverslips were removed, and devices were washed twice with 2 mL PBS to remove non-adherent cells. […] Percent adhesion was quantified by converting cells/image to total cells/area of the co-culture device and dividing by the number of HGSOC cells added to the device.

Another series concerns ovarian cancer xenograft. To be noted: clodronate to reduce macrophage levels; cited from earlier work.
In series [5] the target is T1, P-selectin. The following applies: cited from earlier work.
The subject of a further series is LP-9 mesothelial cells. Briefly: HGSOC adhesion to LP-9 treated with MIP-1β. The format is cell-based, human. The following applies: 100 ng/mL MIP-1β 24 hours, all HGSOC lines.
Excerpt: as §3

For the molecule `O=C(NOC[C@H](O)CO)c1ccc(F)c(F)c1Nc1ccc(I)cc1F` [PD0325901], the “SELP expression in LP-9” value in the series with MEK is on record as “significantly decreased SELP expression”.

In the case of IL-1ra: AAM-secreted ligand IL-1ra, the Extent of metastasis entry in the series with HGSOC is given as “decrease the extent of metastasis”.

Consider Maraviroc, for which the “MIP-1β-stimulated SELP expression in LP-9” value on CCR5 is listed as “effective in inhibiting MIP-1β-stimulated expression of SELF”; at CCR5 (listed as maraviroc), “negated SELP upregulation; also recorded: inhibited the upregulation of SELP”.

For the molecule inclacumab, in [1], the Tolerability in patients entry is “well tolerated”. Besides, the “Efficacy for saphenous vein graft failure following coronary artery bypass surgery” value with P-selectin [2] is reported as “surgery (94-96). While inclacumab had low efficacy for this”.

Take `COc1ccc(C2CC(c3c(O)cc(C)oc3=O)=NCCS2)c(OC)c1` (stereo not drawn) [KF38789, reference compound]: the “HGSOC adhesion to LP-9 increased by MIP-1β” value at P-selectin [3] is recorded as “abrogated the increased adhesion”. In addition, at P-selectin [4], the “Colorectal cancer cell adhesion to LP-9 increased by MIP-1β” value is listed as “abrogates the increased adhesion”.

Consider `O=P(O)(O)C(Cl)(Cl)P(=O)(O)O` [clodronate], for which, in the series on ovarian cancer xenograft, the Metastasis result is given as “decreased metastasis”.

B1: crizanlizumab (antibody, chains of the INN, looked up, V domains shown)
VH: QVQLVQSGAEVKKPGASVKVSCKVSGYTFTSYDINWVRQAPGKGLEWMGWIYPGDGSIKYNEKFKGRVTMTVDKSTDTAYMELSSLRSEDTAVYYCARRGEYGNYEGAMDYWGQGTLVTVSS
VL: DIQMTQSPSSLSASVGDRVTITCKASQSVDYDGHSYMNWYQQKPGKAPKLLIYAASNLESGVPSRFSGSGSGTDFTLTISSLQPEDFATYYCQQSDENPLTFGGGTKVEIK
notes: monoclonal antibody against P-selectin
B1: the Tolerability in patients result in series [1] is on record as “well tolerated”. Also, the “Effect on P-selectin-ligand binding” value in the series with P-selectin [5] is “not only block ligand binding but also disrupt existing P-selectin-ligand interactions”.

B2: MIP-1β: recombinant chemokine MIP-1β (Peprotech; recombinant mouse MIP-1β in vivo) (protein, UniProt P13236 24-92, looked up)
C-C motif chemokine 4: APMGSDPPTACCFSYTARKLPRNFVVDYYETSSLCSQPAVVFQTKRSKQVCADPSESWVQEYVYDLELN
As to B2, the “HGSOC adhesion to LP-9 treated with MIP-1β” value in the series with LP-9 mesothelial cells is “significantly increased adhesion”.
